Source: patent EP3284739A1, “SUBSTITUTED (HET) ARYL COMPOUNDS AS PESTICIDES” (Bayer CropScience Aktiengesellschaft, priority 2017, dated 2018)
Values belong to the molecule of their own block, whether it stands above or below them.

What was measured:
[1] = logP by reversed-phase HPLC (LC-MS), neutral range; assay type: physicochemical; conditions: c18 hplc, ammonium bicarbonate/acetonitrile; pH 7.8, 0,001 molar aqueous Ammoniumhydrogencarbonat / Acetonitril, C 18, 55°C
Protocol: Die Messung der logP Werte erfolgt gemäß EEC Directive 79/831 Annex V.A8 durch HPLC (High Performance Liquid Chromatography) an einer Phasenumkehrsäule (C 18). Temperatur: 55°C. Die Bestimmung mit der LC-MS im sauren Bereich erfolgt bei pH 2,7 mit 0,1 % wässriger Ameisensäure und Acetonitril (enthält 0,1% Ameisensäure) als Eluenten; linearer Gradient von 10% Acetonitril bis 95% Acetonitril. In der Tabelle logP (HCOOH) genannt.
Die Bestimmung mit der LC-MS im neutralen Bereich erfolgt bei pH 7.8 mit 0,001 molarer wässriger Ammoniumhydrogencarbonat-Lösung und Acetonitril als Eluenten; linearer Gradient von 10 % Acetonitril bis 95 % Acetonitril. In der Tabelle logP (neutral) genannt.
Die Eichung erfolgt mit unverzweigten Alkan-2-onen (mit 3 bis 16 Kohlenstoffatomen), deren logP-Werte bekannt sind (Bestimmung der logP-Werte anhand der Retentionszeiten durch lineare Interpolation zwischen zwei aufeinander folgenden Alkanonen).

[2] = system: Ctenocephalides felis; assay: Ctenocephalides felis oral test (feeding on treated citrated cattle blood); assay type: in vivo; conditions: 48 h, Aufwandmenge 100ppm, after 2 days, read-out: Wirkung (Abtötung)
Protocol: Zwecks Herstellung einer zweckmäßigen Wirkstoffzubereitung vermischt man 10 mg Wirkstoff mit 0,5 ml Dimethylsulfoxid. Durch Verdünnen mit citriertem Rinderblut erhält man die gewünschte Konzentration.
Ca. 20 nüchterne adulte Katzenflöhe (Ctenocephalides felis) werden in eine Kammer eingesetzt, die oben und unten mit Gaze verschlossen ist. Auf die Kammer wird ein Metallzylinder gestellt, dessen Unterseite mit Parafilm verschlossen ist. Der Zylinder enthält die Blut-Wirkstoffzubereitung, die von den Flöhen durch die Parafilmmembran aufgenommen werden kann.
Nach 2 Tagen wird die Abtötung in % bestimmt. Dabei bedeutet 100 %, dass alle Flöhe abgetötet wurden; 0 % bedeutet, dass keiner der Flöhe abgetötet wurde.

[3] = system: Phaedon cochleariae; assay: Phaedon cochleariae spray test (Chinese cabbage leaf discs, larvae); assay type: in vivo; conditions: foliar, 168 h, read-out: Wirkung
Description: (§1) Zur Herstellung einer zweckmäßigen Wirkstoffzubereitung löst man 1 Gewichtsteil Wirkstoff mit den angegebenen Gewichtsteilen Lösungsmittel und füllt mit Wasser, welches eine Emulgatorkonzentration von 1000 ppm enthält, bis zum Erreichen der gewünschten Konzentration auf. Zur Herstellung weiterer Testkonzentrationen wird mit emulgatorhaltigem Wasser verdünnt.
Chinakohlblattscheiben (Brassica pekinensis) werden mit einer Wirkstoffzubereitung der gewünschten Konzentration gespritzt und nach dem Abtrocknen mit Larven des Meerrettichblattkäfers (Phaedon cochleariae) besetzt.
Nach 7 Tagen wird die Wirkung in % bestimmt. Dabei bedeutet 100 %, dass alle Käferlarven abgetötet wurden; 0 % bedeutet, dass keine Käferlarven abgetötet wurden.

[4] = system: Spodoptera frugiperda; assay: Spodoptera frugiperda spray test (maize leaf discs, caterpillars); assay type: in vivo; conditions: foliar, 168 h, Aufwandmenge 500g/ha, after 7 days, read-out: Wirkung
Description: as §1
Maisblattscheiben (Zea mays) werden mit einer Wirkstoffzubereitung der gewünschten Konzentration gespritzt und nach dem Abtrocknen mit Raupen des Heerwurms (Spodoptera frugiperda) besetzt.
Nach 7 Tagen wird die Wirkung in % bestimmt. Dabei bedeutet 100 %, dass alle Raupen abgetötet wurden; 0 % bedeutet, dass keine Raupe abgetötet wurde.

chromatographic logP [1]: 4.05
SMILES: CCN(C(=O)C1CC1)c1cc(-c2ccc(OC(F)(F)F)cc2)cc(N(CC)C(=O)C2CC2)n1 [I-29, N,N'-{4-[4-(Trifluormethoxy)phenyl]pyridin-2,6-diyl}bis(N-ethylcyclopropancarboxamid)]

SMILES: CCC(=O)Nc1cc(-c2ccc(C(F)(F)C(F)(F)F)c(F)c2)cc(NC(=O)C2CC2)n1 [I-055]
mortality at 100 µg/mL [2]: 100%
mortality at 500 g/ha [3]: 100%
mortality at 500 g/ha [4]: 100%

SMILES: O=C(Nc1cc(-c2ccc(OC(F)(F)F)cc2)cc(NC(=O)C2CC2)n1)C1CCCC1 [I-021]
mortality at 100 µg/mL [2]: 100%
mortality at 500 g/ha [4]: 100%

SMILES: O=C(Nc1cc(-c2ccc(OC(F)(F)F)cc2)cc(NC(=O)C2CC2(C2CC2)C2CC2)n1)C1CC1 (stereo not shown) [I-028]
mortality at 100 µg/mL [2]: 100%
mortality at 500 g/ha [3]: 100%
mortality at 500 g/ha [4]: 100%

SMILES: Cc1cc(-c2cc(NC(=O)C3CC3)nc(NC(=O)C3CC3)c2)cc(F)c1C(F)(F)C(F)(F)F [I-040]
mortality at 500 g/ha [3]: 100%
mortality at 500 g/ha [4]: 100%

SMILES: N#CC1(C(=O)Nc2cc(-c3ccc(C(F)(F)C(F)(F)F)c(F)c3)cc(NC(=O)C3CC3)n2)CC1 [I-057]
mortality at 500 g/ha [4]: 100%

SMILES: CC1(C(=O)Nc2cc(-c3ccc(OC(F)(F)F)cc3)cc(NC(=O)C3CC3)n2)CCCC1 [I-011]
mortality at 500 g/ha [4]: 100%

SMILES: O=C(Nc1cc(-c2cc(F)c(C(F)(F)C(F)(F)F)c(F)c2)cc(NC(=O)C2CC2)n1)C1CC1 [I-044]
mortality at 500 g/ha [4]: 100%

SMILES: CC(C)C(=O)Nc1cc(-c2ccc(C(F)(F)C(F)(F)F)c(F)c2)cc(NC(=O)C(C)C)n1 [I-052]
mortality at 100 µg/mL [2]: 100%
mortality at 500 g/ha [3]: 100%
mortality at 500 g/ha [4]: 100%

SMILES: CCCCC(=O)Nc1cc(-c2ccc(OC(F)(F)F)cc2)cc(NC(=O)C2CC2)n1 [I-019]
mortality at 500 g/ha [3]: 100%
mortality at 500 g/ha [4]: 100%

SMILES: CC(C)C(=O)Nc1cc(-c2ccc(OC(F)(F)F)cc2)cc(NC(=O)C2CC2)n1 [I-018]
mortality at 100 µg/mL [2]: 100%
mortality at 500 g/ha [3]: 100%
mortality at 500 g/ha [4]: 100%

SMILES: CC(C)(C#N)C(=O)Nc1cc(-c2ccc(OC(F)(F)F)cc2)cc(NC(=O)C2CC2)n1 [I-009]
mortality at 500 g/ha [4]: 100%

SMILES: N#Cc1ccc(C(=O)Nc2cc(-c3ccc(OC(F)(F)F)cc3)cc(NC(=O)C3CC3)n2)cc1 [I-027]
mortality at 100 µg/mL [2]: 100%
mortality at 500 g/ha [3]: 100%
mortality at 500 g/ha [4]: 100%

SMILES: O=C(Nc1cc(-c2cc(F)c(C(F)(F)C(F)(F)F)cc2F)cc(NC(=O)C2CC2)n1)C1CC1 [I-048]
mortality at 500 g/ha [3]: 83%
mortality at 500 g/ha [4]: 100%

SMILES: O=C(Nc1cc(-c2c(F)cc(C(F)(F)C(F)(F)F)c(F)c2F)cc(NC(=O)C2CC2)n1)C1CC1 [I-062]
mortality at 500 g/ha [3]: 100%
mortality at 500 g/ha [4]: 100%

SMILES: N#Cc1ccc(CC(=O)Nc2cc(-c3ccc(OC(F)(F)F)cc3)cc(NC(=O)C3CC3)n2)cc1 [I-007]
mortality at 100 µg/mL [2]: 100%
mortality at 500 g/ha [4]: 83%

chromatographic logP [1]: 2.83
SMILES: Nc1cc(N)cc(-c2ccc(C(F)(F)C(F)(F)F)c(F)c2)c1 [3'-Fluor-4'-(pentafluorethyl)biphenyl-3,5-diamin]

SMILES: N#Cc1cccc(CC(=O)Nc2cc(-c3ccc(OC(F)(F)F)cc3)cc(NC(=O)C3CC3)n2)c1 [I-003]
mortality at 100 µg/mL [2]: 100%
mortality at 500 g/ha [4]: 100%

SMILES: O=C(Nc1cc(NC(=O)C2CC2)cc(-c2ccc(C(F)(F)C(F)(F)F)c(F)c2)c1)C1CC1 [I-050]
mortality at 100 µg/mL [2]: 100%
mortality at 500 g/ha [3]: 100%
mortality at 500 g/ha [4]: 100%

SMILES: O=C(Nc1cc(-c2ccc(C(F)(F)C(F)(F)F)c(F)c2F)cc(NC(=O)C2CC2)n1)C1CC1 [I-045]
mortality at 500 g/ha [3]: 100%
mortality at 500 g/ha [4]: 100%

SMILES: O=C(Nc1cc(-c2cc(F)c(C(F)(F)C(F)(F)F)c(Cl)c2)cc(NC(=O)C2CC2)n1)C1CC1 [I-053]
mortality at 500 g/ha [3]: 100%
mortality at 500 g/ha [4]: 100%

SMILES: O=C(Nc1cc(-c2cc(F)c(C(F)(F)C(F)(F)F)cc2Cl)cc(NC(=O)C2CC2)n1)C1CC1 [I-042]
mortality at 500 g/ha [4]: 100%

SMILES: CCC(=O)Nc1cc(-c2ccc(C(F)(F)C(F)(F)F)c(F)c2)cc(NC(=O)CC)n1 [I-058]
mortality at 500 g/ha [3]: 100%
mortality at 500 g/ha [4]: 100%

SMILES: O=C(Nc1cc(-c2c(F)cc(C(F)(F)C(F)(F)F)cc2F)cc(NC(=O)C2CC2)n1)C1CC1 [I-041]
mortality at 500 g/ha [4]: 83%
